Measured values: patent US6150341A, “Vitamin B12 derivatives and methods for their preparation” (Biotch Australia Pty Limited, priority 1998, dated 2000)

Biological target: T1, Porcine Intrinsic Factor (Sus scrofa, UniProt A0A8D1ENZ1)
T1 construct: purchased Sigma
Test: Relative IF affinity of 5'O-VB12 derivatives (57CoVB12 competition, BSA-coated charcoal separation)
Conditions: inhibition of 57CoVB12 binding to porcine IF compared to unmodified VB12; 20 minutes at room temperature, pH 7.5
Procedure: Determination of the relative IF affinity of various 5'O-VB12 derivatives.
IF Buffer: BSA (VB12 and IF deficient) BSA (Sigma A-3902) was dissolved at 1 mg/ml in 0.1M potassium phosphate buffer pH 7.5.
^57 CoVB12 : ^57 Co stock (50 μl) (Kodak) was diluted into 50 ul of stock in 25 ml of IF buffer to give a solution of 1 ng ^57 CoVB12 /25 ml. 250 ng cold VB12 was added to 25 ml of hot ^57 CoVB12 solution to give a 10 ng/ml solution.
Porcine Intrinsic Factor: Porcine IF (Sigma) was dissolved in IF buffer at 200 Units/ml, and frozen in 500 ul lots (100 IU aliquots) until required.
BSA-coated charcoal: BSA (1%) was added to an equal volume of 5% charcoal solution of 0.1 M potassium phosphate buffer pH 7.5 and stirred gently for 30 minutes.
Ten fold up dilutions of VB12 or VB12 derivatives were prepared down to 1 ng/ml in IF buffer. An equal volume of diluted IF was added to each sample and incubated for 20 minutes at room temperature. An equal volume of the BSA-coated charcoal was added to each sample, which was mixed prior to centrifugation. Following centrifugation the supernatant and pellet of each sample were separated and ^57 CoVB12 determined by counting in a gamma counter. Data is represented as the % inhibition of ^57 CoVB2 binding when compared to unmodified VB12.

T1 sequence (A0A8D1ENZ1 29-425): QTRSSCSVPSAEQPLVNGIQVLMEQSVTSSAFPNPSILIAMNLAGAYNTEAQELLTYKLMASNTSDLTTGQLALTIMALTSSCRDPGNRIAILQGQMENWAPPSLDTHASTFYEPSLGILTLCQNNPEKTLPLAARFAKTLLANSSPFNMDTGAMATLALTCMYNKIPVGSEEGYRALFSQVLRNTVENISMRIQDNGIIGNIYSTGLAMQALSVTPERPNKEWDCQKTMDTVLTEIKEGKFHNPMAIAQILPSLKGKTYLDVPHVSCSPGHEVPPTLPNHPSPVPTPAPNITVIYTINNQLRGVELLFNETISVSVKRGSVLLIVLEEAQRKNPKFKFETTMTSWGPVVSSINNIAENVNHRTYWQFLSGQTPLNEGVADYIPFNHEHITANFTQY

% binding relative to vitamin B12	Substance
25%	5'OH-(aminohexyl)-VB12 [aminohexyl-5'O-VB12]
49%	5'OH-(hexyl)-VB12 [hexyl-5'O-VB12]
4.2%	5'OH-(tetradecyl)-VB12 [tetradecyl-5'O-VB12]
31%	5'OH-(aminododecanyl)-VB12 [aminododecanyl-5'O-VB12]

Second part, the substance before the results:

Substance	% binding relative to vitamin B12
5'OH-(aminobutyl)-VB12 [aminobutyl-5'O-VB12]	27%
5'OH-(dodecyl)-VB12 [dodecyl-5'O-VB12]	35%
5'OH-(octadecyl)-VB12 [octadecyl-5'O-VB12]	0.57%
5'OH-(succinylhydrazidyl)-VB12 [succinylhydrazidyl-5'O-VB12]	37%
5'OH-(aminoethyl)-VB12 [aminoethyl-5'O-VB12]	40%
5'OH-(hexadecyl)-VB12 [hexadecy-5'O-VB12]	0.78%
5'OH-(adipylhydrazidyl)-VB12 [adiphylhydrazidyl-5'O-VB12]	29%
VB12 -glycine acid [HO-Gly-5'O-VB12]	25%
